Assay results as given in ChEMBL document CHEMBL1201862, “PubChem BioAssay data set” (2004).
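Cells were grown in 96-well plates and exposed to each compound for 48 hours at five concentrations; endpoints were interpolated linearly between bracketing concentrations, or set to the highest concentration if not reached. Abbreviation: GI50, concentration required for 50% inhibition of growth.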 Calls of active or inactive are those of the source. No stated cut-off is given here; in the data, active = GI50 up to about 1.1 µM and inactive = higher.

What was measured:
Assay in all cases: growth of human tumour cells (NCI), 48 h
HCT-116 = system: HCT-116
LOX IMVI = system: LOX IMVI
MDA-N = system: MDA-N
HOP-92 = system: HOP-92
HCT-15 = system: HCT-15
SF-268 = system: SF-268
K562 = system: K562
EKVX = system: EKVX
DU-145 = system: DU-145
SF-539 = system: SF-539
OVCAR-3 = system: OVCAR-3
SR = system: SR
T47D = system: T47D
COLO 205 = system: COLO 205
SN12C = system: SN12C
HT-29 = system: HT-29
CCRF-CEM = system: CCRF-CEM
PC-3 = system: PC-3
SNB-75 = system: SNB-75
ACHN = system: ACHN
HCC 2998 = system: HCC 2998
A498 = system: A498
HL-60 = system: HL-60
UACC-257 = system: UACC-257
SK-OV-3 = system: SK-OV-3
TK-10 = system: TK-10
CAKI-1 = system: CAKI-1
UO-31 = system: UO-31
SF-295 = system: SF-295
OVCAR-4 = system: OVCAR-4
OVCAR-5 = system: OVCAR-5
SK-MEL-2 = system: SK-MEL-2
RPMI-8226 = system: RPMI-8226
786-0 = system: 786-0
NCI-H460 = system: NCI-H460
U-251 = system: U-251
NCI-H226 = system: NCI-H226
SW-620 = system: SW-620
MDA-MB-435 = system: MDA-MB-435
MOLT-4 = system: MOLT-4
KM12 = system: KM12
IGROV-1 = system: IGROV-1
RXF 393 = system: RXF 393
MDA-MB-231 = system: MDA-MB-231
A549 = system: A549
BT-549 = system: BT-549
OVCAR-8 = system: OVCAR-8
SNB-19 = system: SNB-19
M14 = system: M14
NCI/ADR-RES = system: NCI/ADR-RES
UACC-62 = system: UACC-62
NCI-H23 = system: NCI-H23
HOP-62 = system: HOP-62
MCF7 = system: MCF7
Hs-578T = system: Hs-578T
SK-MEL-28 = system: SK-MEL-28
NCI-H522 = system: NCI-H522
SK-MEL-5 = system: SK-MEL-5
Malme-3M = system: Malme-3M

In the case of `N#Cc1c(=O)c2cccnc2n2c1[nH]c1ccccc12`, the GI50 (HCT-116) was 91.4 µM (inactive), the GI50 (LOX IMVI) was > 100 µM (inactive) and the GI50 (MDA-N) was > 100 µM (inactive). For the same molecule, the GI50 (HOP-92) was 22.6 µM (inactive), the GI50 (HCT-15) was 98.2 µM and the GI50 (SF-268) was 49.1 µM (inactive). For the same molecule, the GI50 (K562) was > 100 µM (inactive), the GI50 (EKVX) was 85.9 µM (inactive) and the GI50 (DU-145) was > 100 µM (inactive). The GI50 (SF-539) was 55.8 µM (inactive), the GI50 (OVCAR-3) was 78 µM (inactive) and the GI50 (SR) was > 100 µM (inactive). For the same molecule, the GI50 (T47D) was > 100 µM (inactive), the GI50 (COLO 205) was > 100 µM (inactive) and the GI50 (SN12C) was > 100 µM (inactive). For the same molecule, the GI50 (HT-29) was > 100 µM (inactive), the GI50 (CCRF-CEM) was > 100 µM (inactive) and the GI50 (PC-3) was > 100 µM (inactive). The GI50 (SNB-75) was 50.5 µM (inactive), the GI50 (ACHN) was 42.1 µM (inactive) and the GI50 (HCC 2998) was > 100 µM (inactive). The GI50 (A498) was 77.3 µM (inactive), the GI50 (HL-60) was > 100 µM (inactive) and the GI50 (UACC-257) was > 100 µM (inactive). The GI50 (SK-OV-3) was 52.8 µM (inactive), the GI50 (TK-10) was 55.5 µM (inactive) and the GI50 (CAKI-1) was > 100 µM (inactive). For the same molecule, the GI50 (UO-31) was 48.6 µM (inactive), the GI50 (SF-295) was 49.3 µM (inactive) and the GI50 (OVCAR-4) was > 100 µM (inactive). For the same molecule, the GI50 (OVCAR-5) was > 100 µM (inactive), the GI50 (SK-MEL-2) was > 100 µM (inactive) and the GI50 (RPMI-8226) was > 100 µM (inactive). The GI50 (786-0) was 32.1 µM (inactive), the GI50 (NCI-H460) was 69.2 µM (inactive) and the GI50 (U-251) was 38.6 µM (inactive). For the same molecule, the GI50 (NCI-H226) was 66.5 µM (inactive), the GI50 (SW-620) was > 100 µM (inactive) and the GI50 (MDA-MB-435) was > 100 µM (inactive). For the same molecule, the GI50 (MOLT-4) was > 100 µM (inactive), the GI50 (KM12) was 80.7 µM (inactive) and the GI50 (IGROV-1) was > 100 µM (inactive). For the same molecule, the GI50 (RXF 393) was 74.1 µM (inactive), the GI50 (MDA-MB-231) was 27 µM (inactive) and the GI50 (A549) was > 100 µM (inactive). The GI50 (BT-549) was 57.3 µM (inactive), the GI50 (OVCAR-8) was 66.7 µM (inactive) and the GI50 (SNB-19) was 57.7 µM (inactive). For the same molecule, the GI50 (M14) was 90.2 µM (inactive), the GI50 (NCI/ADR-RES) was 64.6 µM (inactive) and the GI50 (UACC-62) was > 100 µM (inactive). For the same molecule, the GI50 (NCI-H23) was 38.7 µM (inactive), the GI50 (HOP-62) was 41.4 µM (inactive) and the GI50 (MCF7) was > 100 µM (inactive). The GI50 (Hs-578T) was 21.6 µM (inactive) and the GI50 (SK-MEL-28) was > 100 µM (inactive).
For `Oc1c2c(c(O)c3ccccc13)C1(N=N2)c2ccccc2Oc2ccccc21`, the GI50 (HCT-116) was 3.17 µM (inactive), the GI50 (LOX IMVI) was 2.38 µM (inactive) and the GI50 (MDA-N) was 6.58 µM (inactive). The GI50 (HOP-92) was 15.8 µM (inactive), the GI50 (HCT-15) was 2.65 µM and the GI50 (SF-268) was 11.6 µM (inactive). For the same molecule, the GI50 (K562) was 9.91 µM (inactive), the GI50 (EKVX) was 13 µM (inactive) and the GI50 (DU-145) was 8.73 µM (inactive). The GI50 (SF-539) was 5.74 µM (inactive), the GI50 (OVCAR-3) was 3.01 µM (inactive) and the GI50 (SR) was 3.4 µM (inactive). The GI50 (T47D) was 7.55 µM (inactive), the GI50 (COLO 205) was 13 µM (inactive) and the GI50 (SN12C) was 6.46 µM (inactive). The GI50 (HT-29) was 6.11 µM (inactive), the GI50 (CCRF-CEM) was 3.2 µM (inactive) and the GI50 (PC-3) was 12.5 µM (inactive). For the same molecule, the GI50 (NCI-H522) was 1.98 µM (inactive), the GI50 (SNB-75) was 17.3 µM (inactive) and the GI50 (SK-MEL-5) was 13 µM (inactive). For the same molecule, the GI50 (ACHN) was 3.79 µM (inactive), the GI50 (HCC 2998) was 18.7 µM (inactive) and the GI50 (A498) was 19 µM (inactive). For the same molecule, the GI50 (HL-60) was 7.03 µM (inactive), the GI50 (UACC-257) was 5.71 µM (inactive) and the GI50 (SK-OV-3) was 16 µM (inactive). The GI50 (TK-10) was 6.98 µM (inactive), the GI50 (CAKI-1) was 10.3 µM (inactive) and the GI50 (UO-31) was 6.68 µM (inactive). For the same molecule, the GI50 (SF-295) was 15 µM (inactive), the GI50 (OVCAR-5) was 10.2 µM (inactive) and the GI50 (Malme-3M) was 2.48 µM (inactive). For the same molecule, the GI50 (SK-MEL-2) was 12 µM (inactive), the GI50 (RPMI-8226) was 2.88 µM (inactive) and the GI50 (786-0) was 3.2 µM (inactive). The GI50 (NCI-H460) was 18.5 µM (inactive), the GI50 (U-251) was 3.9 µM (inactive) and the GI50 (SW-620) was 3.64 µM (inactive). The GI50 (MDA-MB-435) was 4.38 µM (inactive), the GI50 (MOLT-4) was 4.17 µM (inactive) and the GI50 (KM12) was 15.4 µM (inactive). The GI50 (IGROV-1) was 2.52 µM (inactive), the GI50 (RXF 393) was 1.98 µM (inactive) and the GI50 (MDA-MB-231) was 13.9 µM (inactive). The GI50 (A549) was 10 µM (inactive), the GI50 (BT-549) was 10.7 µM (inactive) and the GI50 (OVCAR-8) was 3.2 µM (inactive). For the same molecule, the GI50 (SNB-19) was 16.2 µM (inactive), the GI50 (M14) was 8.38 µM (inactive) and the GI50 (NCI/ADR-RES) was 9.57 µM (inactive). For the same molecule, the GI50 (UACC-62) was 11.1 µM (inactive), the GI50 (NCI-H23) was 15.2 µM (inactive) and the GI50 (HOP-62) was 16 µM (inactive). For the same molecule, the GI50 (MCF7) was 3.09 µM (inactive), the GI50 (Hs-578T) was 5.56 µM (inactive) and the GI50 (SK-MEL-28) was 11.4 µM (inactive).
